Data reported in the supplement of paper PMC10307832.

Tests used:
Assay in all cases: relative viability (nuclei count vs DMSO), 5 days (fraction); higher = more cells survive
[1] = system: ABC-1
Method in brief: (§1)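 Each reported value is a median over duplicate plates. It expresses relative viability: treated-well nuclei count divided by vehicle-well nuclei count. Lung cancer cell lines in 1536-well plates were dosed by pin tool a day after seeding, alone with one drug or with a fixed anchor-drug dose plus five library-drug doses (not always all listed) in √10 steps, and nuclei were counted after 5 days.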

[2] = system: COR-L23
Method in brief: as §1

[3] = system: EPLC-272H
Method in brief: as §1

[4] = system: HARA
Method in brief: as §1

[5] = system: HCC-15
Method in brief: as §1

[6] = system: HCC-78
Method in brief: as §1

[7] = system: LC-2-ad
Method in brief: as §1

[8] = system: LU99A
Method in brief: as §1

[9] = system: NCI-H1651
Method in brief: as §1

[10] = system: NCI-H1915
Method in brief: as §1

[11] = system: NCI-H1993
Method in brief: as §1

[12] = system: NCI-H2009
Method in brief: as §1

[13] = system: NCI-H2085
Method in brief: as §1

[14] = system: NCI-H2126
Method in brief: as §1

[15] = system: NCI-H2342
Method in brief: as §1

[16] = system: NCI-H2347
Method in brief: as §1

[17] = system: NCI-H358
Method in brief: as §1

[18] = system: NCI-H460
Method in brief: as §1

[19] = system: NCI-H522
Method in brief: as §1

[20] = system: NCI-H650
Method in brief: as §1

[21] = system: NCI-H838
Method in brief: as §1

[22] = system: PC-14
Method in brief: as §1

[23] = system: SW 1573
Method in brief: as §1

[24] = system: UMC-11
Method in brief: as §1

For `CC(C)Oc1cc(Nc2nc(N[C@@H](C)c3ccc(F)cn3)ncc2Cl)n[nH]1` [AZ23] + Cc1cc(Nc2cc(N3CCN(C)CC3)nc(Sc3ccc(NC(=O)C4CC4)cc3)n2)n[nH]1 [Tozasertib] (partner 0.1 µM), the relative viability ([1]; first compound 0.01 µM) was 0.192, the relative viability ([1]; first compound 0.03162 µM) was 0.201 and the relative viability ([1]; first compound 0.3162 µM) was 0.195. It also gave a relative viability ([2]; first compound 0.01 µM) of 0.135, a relative viability ([2]; first compound 0.03162 µM) of 0.231 and a relative viability ([2]; first compound 0.3162 µM) of 0.205. It also gave a relative viability ([3]; first compound 0.01 µM) of 0.384, a relative viability ([3]; first compound 0.03162 µM) of 0.263 and a relative viability ([3]; first compound 0.3162 µM) of 0.246. The relative viability ([4]; first compound 0.03162 µM) was 0.0837, the relative viability ([4]; first compound 0.3162 µM) was 0.11 and the relative viability ([5]; first compound 0.01 µM) was 0.513. It also gave a relative viability ([5]; first compound 0.03162 µM) of 0.498, a relative viability ([5]; first compound 0.3162 µM) of 0.631 and a relative viability ([6]; first compound 0.01 µM) of 0.344. For the same molecule, the relative viability ([6]; first compound 0.03162 µM) was 0.482, the relative viability ([6]; first compound 0.3162 µM) was 0.334 and the relative viability ([7]; first compound 0.01 µM) was 0.467. For the same molecule, the relative viability ([7]; first compound 0.03162 µM) was 0.446, the relative viability ([7]; first compound 0.3162 µM) was 0.452 and the relative viability ([8]; first compound 0.01 µM) was 0.243. The relative viability ([8]; first compound 0.03162 µM) was 0.286, the relative viability ([8]; first compound 0.3162 µM) was 0.296 and the relative viability ([9]; first compound 0.03162 µM) was 0.885. It also gave a relative viability ([9]; first compound 0.3162 µM) of 0.71, a relative viability ([10]; first compound 0.01 µM) of 0.479 and a relative viability ([10]; first compound 0.03162 µM) of 0.507. The relative viability ([10]; first compound 0.3162 µM) was 0.514, the relative viability ([11]; first compound 0.01 µM) was 0.593 and the relative viability ([11]; first compound 0.03162 µM) was 0.604. It also gave a relative viability ([11]; first compound 0.3162 µM) of 0.548, a relative viability ([12]; first compound 0.01 µM) of 0.755 and a relative viability ([12]; first compound 0.03162 µM) of 0.912. The relative viability ([12]; first compound 0.3162 µM) was 0.91, the relative viability ([13]; first compound 0.01 µM) was 0.799 and the relative viability ([13]; first compound 0.03162 µM) was 0.855. For the same molecule, the relative viability ([13]; first compound 0.3162 µM) was 0.803, the relative viability ([14]; first compound 0.01 µM) was 0.923 and the relative viability ([14]; first compound 0.03162 µM) was 0.939. The relative viability ([14]; first compound 0.3162 µM) was 0.892, the relative viability ([15]; first compound 0.01 µM) was 0.482 and the relative viability ([15]; first compound 0.03162 µM) was 0.483. For the same molecule, the relative viability ([15]; first compound 0.3162 µM) was 0.455, the relative viability ([16]; first compound 0.01 µM) was 0.645 and the relative viability ([16]; first compound 0.03162 µM) was 0.609. For the same molecule, the relative viability ([16]; first compound 0.3162 µM) was 0.604, the relative viability ([17]; first compound 0.01 µM) was 0.101 and the relative viability ([17]; first compound 0.03162 µM) was 0.114. The relative viability ([17]; first compound 0.3162 µM) was 0.107, the relative viability ([18]; first compound 0.01 µM) was 0.184 and the relative viability ([18]; first compound 0.03162 µM) was 0.518. For the same molecule, the relative viability ([18]; first compound 0.3162 µM) was 0.566, the relative viability ([19]; first compound 0.01 µM) was 0.519 and the relative viability ([19]; first compound 0.03162 µM) was 0.567. For the same molecule, the relative viability ([19]; first compound 0.3162 µM) was 0.65, the relative viability ([20]; first compound 0.01 µM) was 0.728 and the relative viability ([20]; first compound 0.03162 µM) was 0.75. For the same molecule, the relative viability ([20]; first compound 0.3162 µM) was 0.802, the relative viability ([21]; first compound 0.01 µM) was 0.267 and the relative viability ([21]; first compound 0.03162 µM) was 0.301. It also gave a relative viability ([21]; first compound 0.3162 µM) of 0.274, a relative viability ([22]; first compound 0.01 µM) of 0.428 and a relative viability ([22]; first compound 0.03162 µM) of 0.656. For the same molecule, the relative viability ([22]; first compound 0.3162 µM) was 0.696, the relative viability ([23]; first compound 0.01 µM) was 0.168 and the relative viability ([23]; first compound 0.03162 µM) was 0.151. The relative viability ([23]; first compound 0.3162 µM) was 0.17, the relative viability ([24]; first compound 0.01 µM) was 0.181 and the relative viability ([24]; first compound 0.03162 µM) was 0.197. For the same molecule, the relative viability ([24]; first compound 0.3162 µM) was 0.19.
